# Test results published in paper PMC2363406 (British Journal of Cancer, 2000).
# Several values for one entry are separate records, joined by “and”; a condition that tells them apart may be missing. Identical values can stand only once. Entries after “also recorded” stand apart in the source; their conditions may differ. Counter-ions that a name gives are not always drawn. Like-named read-outs stand apart in the source and are kept apart here.
# Experiments:
# cytochrome P450 = conditions: cited from earlier work; for metabolic interactions with paclitaxel: paclitaxel pre-medication drugs, 1995, Schlichenmyer et al; for effect on the metabolism of paclitaxel: 1997
# HNX14C = assay: In vitro growth inhibition (SRB assay), single agents and nolatrexed/paclitaxel combination (Chou and Talalay combination index); format: cell-based
# CYP2C8 = target: T1, CYP2C8 (Homo sapiens, UniProt P10632); assay: Inhibition of paclitaxel metabolism to 6-hydroxypaclitaxel in pooled human liver microsomes; format: in vitro ADME
# T1 construct: Pooled human liver microsomes (1 mg protein per ml) were incubated with paclitaxel; tissue Keystone Skin Bank Exton, PA, USA; host or cells: pooled human liver microsomes from ten individual livers
# T1 sequence (P10632 1-490): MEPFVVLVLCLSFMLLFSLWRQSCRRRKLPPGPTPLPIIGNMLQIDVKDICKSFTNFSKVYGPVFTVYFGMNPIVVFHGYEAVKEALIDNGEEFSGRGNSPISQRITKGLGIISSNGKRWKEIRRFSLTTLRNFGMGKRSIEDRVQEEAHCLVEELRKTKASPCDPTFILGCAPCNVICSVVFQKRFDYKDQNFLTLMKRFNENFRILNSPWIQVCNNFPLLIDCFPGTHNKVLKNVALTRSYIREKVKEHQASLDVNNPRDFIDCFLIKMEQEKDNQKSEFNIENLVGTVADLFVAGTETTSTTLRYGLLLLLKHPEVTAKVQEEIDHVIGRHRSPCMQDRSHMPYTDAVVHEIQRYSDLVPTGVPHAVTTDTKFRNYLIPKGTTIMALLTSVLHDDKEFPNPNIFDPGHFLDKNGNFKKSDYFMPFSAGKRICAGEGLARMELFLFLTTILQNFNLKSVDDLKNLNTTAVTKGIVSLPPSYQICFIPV
# HNX22B = assay: In vitro growth inhibition (SRB assay), single agents and nolatrexed/paclitaxel combination (Chou and Talalay combination index); format: cell-based
# [1] = Clinical plasma pharmacokinetics of nolatrexed (HPLC, non-compartmental analysis); format: in vivo, human; conditions: for half-life: human, plasma, iv, Nolatrexed Half-life; for half-life / Nolatrexed Half-life / Nolatrexed Clearance: nolatrexed 500 mg m-2 day-1 120-h i.v. infusion
# [2] = single agent, 135 mg m-2, cited from earlier work
# [3] = Clinical plasma pharmacokinetics of paclitaxel and its metabolites (HPLC, non-compartmental analysis); conditions: for AUC / half-life: human
# [4] = in vitro studies, ref Jamis-Dow et al
# [5] = schedule 1, patients 3, 6, 9 in order
# [6] = schedule 2, patients 5, 7, 10 in order
# [7] = schedule 3, patients 2, 4, 8 in order
# [8] = 3-h paclitaxel exposure, single agent, mean (s.d.) n = 3
# [9] = schedule 1, paclitaxel 80 mg m-2 3-h i.v., course 1, patients 3, 6, 9 in order
# [10] = schedule 2, paclitaxel 80 mg m-2
# [11] = schedule 2, paclitaxel 80 mg m-2 3-h i.v., course 1, patients 5, 7, 10 in order
# [12] = human liver preparations and patients, ref Harris et al, 1994, Kuhn et al
structure (smiles),measurement,setting,value
CN(C)CCC(c1ccc(Cl)cc1)c1ccccn1 (stereo not drawn) [chlorpheniramine],metabolic interactions with paclitaxel,cytochrome P450; ref Jamis-Dow et al,no metabolic interactions
CN/C(=N/CCSCc1nc[nH]c1C)NC#N [cimetidine],metabolic interactions with paclitaxel,cytochrome P450; ref Jamis-Dow et al,no metabolic interactions
C[C@@H]1C[C@H]2[C@@H]3CCC4=CC(=O)C=C[C@]4(C)[C@@]3(F)[C@@H](O)C[C@]2(C)[C@@]1(O)C(=O)CO [dexamethasone],metabolic interactions with paclitaxel,cytochrome P450; ref Jamis-Dow et al,no metabolic interactions
OC(Cn1cncn1)(Cn1cncn1)c1ccc(F)cc1F [fluconazole],effect on the metabolism of paclitaxel,cytochrome P450; [4],inhibit the metabolism of paclitaxel
CC(=O)N1CCN(c2ccc(OCC3COC(Cn4ccnc4)(c4ccc(Cl)cc4Cl)O3)cc2)CC1 (stereo not drawn) [ketoconazole],effect on the metabolism of paclitaxel,cytochrome P450; [4],inhibit the metabolism of paclitaxel
"Cc1ccc2nc(N)[nH]c(=O)c2c1Sc1ccncc1 [nolatrexed, 3,4-dihydro-2-amino-6-methyl-4-oxo-5-(4-pyridylthio)-quinazolone dihydrochloride]",IC50,HNX14C; 120 h,1120 nM
same,inhibition of paclitaxel metabolism,"CYP2C8; human liver microsomes, statement in words",being an inhibitor of the major routes of metabolism of paclitaxel
same,Ki,"CYP2C8; read-out: Ki, inhibition of metabolism of paclitaxel to its 6-hydroxy-metabolite",640 nM
same,IC50,HNX22B; 120 h,660 nM
same,half-life,[1]; [5],1.1 h
same,half-life,[1]; [6],1.97 h
same,half-life,[1]; [7],1.62 h
same,Nolatrexed Half-life,[1]; [5],1.88 h and 2.13 h
same,Nolatrexed Clearance,[1]; [6],73 ml min-1 m-2 and 108 ml min-1 m-2 and 91 ml min-1 m-2
same,Nolatrexed Half-life,[1]; [6],1.58 h and 2.57 h
same,Nolatrexed Clearance,[1]; [7],99 ml min-1 m-2 and 62 ml min-1 m-2 and 79 ml min-1 m-2
same,Nolatrexed Half-life,[1]; [7],2.2 h and 1.9 h
same,effect of schedule on the pharmacokinetics of nolatrexed,[1]; three schedules with paclitaxel,no effect of schedule; also recorded: unaffected by schedule
CC(=O)O[C@H]1C(=O)[C@@]2(C)[C@H]([C@H](OC(=O)c3ccccc3)[C@]3(O)C[C@H](OC(=O)[C@H](O)[C@@H](NC(=O)c4ccccc4)c4ccccc4)C(C)=C1C3(C)C)[C@]1(OC(C)=O)CO[C@@H]1C[C@@H]2O [paclitaxel],Paclitaxel Clearance,"[2]; ref Gianni, 1995",247 ml min-1 m-2
same,Paclitaxel Clearance,"[2]; ref Keung, 1993",295 ml min-1 m-2
same,IC50,HNX14C; [8],31 nM
same,IC50,HNX22B; [8],38 nM
same,AUC,"[3]; plasma, intravenous, 80 mg, AUCs of paclitaxel, schedules 1 and 3 (except patient 8), paclitaxel 80 mg m-2",3 to 4.85 µM·h
same,AUC,"[3]; plasma, intravenous, 135 mg m-2, Paclitaxel AUC, patient 8, single-agent paclitaxel 135 mg m-2 as 3-h infusion, no nolatrexed",20.6 µM·h
same,half-life,"[3]; plasma, intravenous, 135 mg m-2, Paclitaxel Half-life, patient 8, single-agent paclitaxel 135 mg m-2 as 3-h infusion, no nolatrexed",6 h
same,AUC,"[3]; plasma, iv, 80 mg, Paclitaxel AUC, schedule 1, paclitaxel 80 mg m-2 3-h i.v., course 1, patients 3, 6, 9 in order",3.78 µM·h
same,AUC,"[3]; plasma, iv, 80 mg, Paclitaxel AUC, schedule 2, paclitaxel 80 mg m-2 3-h i.v., course 1, patients 5, 7, 10 in order",9.42 µM·h
same,half-life,"[3]; plasma, iv, 80 mg, Paclitaxel Half-life, schedule 1, paclitaxel 80 mg m-2 3-h i.v., course 1, patients 3, 6, 9 in order",7.02 h
same,half-life,"[3]; plasma, iv, 80 mg, Paclitaxel Half-life, schedule 2, paclitaxel 80 mg m-2 3-h i.v., course 1, patients 5, 7, 10 in order",6.88 h
same,half-life,"[3]; plasma, iv, 80 mg, Paclitaxel Half-life, schedule 3, paclitaxel 80 mg m-2 3-h i.v., course 1, patients 2, 4, 8 in order",6.08 h
same,Paclitaxel Clearance,"[3]; patient 8, single-agent paclitaxel 135 mg m-2 as 3-h infusion, no nolatrexed",127 ml min-1 m-2
same,clearance of paclitaxel,"[3]; patients on schedules 1 and 3 (with the exception of patient 8), paclitaxel 80 mg m-2",322–520 ml min-1 m-2 and 322-520 ml min-1 m-2
same,Paclitaxel Clearance,[3]; [9],376 ml min-1 m-2 and 322 ml min-1 m-2 and 411 ml min-1 m-2
same,Paclitaxel Half-life,[3]; [9],7.37 h and 8.45 h
same,time above plasma paclitaxel concentration of 0.05 M,[3]; schedule 2,16 to 27 h
same,time above plasma paclitaxel concentration of 0.1 M,[3]; schedule 2,10 to 18 h
same,Paclitaxel Peak conc.,"[3]; schedule 2 (nolatrexed 0-120 h, paclitaxel 48-51 h), paclitaxel 80 mg m-2 3-h i.v., plasma, course 1, patients 5, 7, 10 in order",1.66-1.93 M
same,areas under the curve of paclitaxel,[3]; [10],392 to 565 µM/min
same,peak plasma concentrations of paclitaxel,[3]; [10],1.66 to 1.93 µM
same,Paclitaxel Clearance,[3]; [11],165–238 ml min-1 m-2 and 165 ml min-1 m-2 and 238 ml min-1 m-2 and 171 ml min-1 m-2 and 165-238 ml min-1 m-2
same,Paclitaxel Half-life,[3]; [11],6.35 h and 6.93 h
same,Paclitaxel AUC,"[3]; schedule 2, paclitaxel 80 mg m-2 3-h i.v., plasma, course 1, patients 5, 7, 10 in order",392 to 565 M/min
same,Paclitaxel Half-life,"[3]; schedule 3, paclitaxel 80 mg m-2 3-h i.v., course 1, patients 2, 4, 8 in order",8.42 h and 6.35 h
same,time above plasma paclitaxel concentration of 0.05 M,[3]; schedules 1 and 3,8 to 18 h
same,time above plasma paclitaxel concentration of 0.1 M,[3]; schedules 1 and 3,5 to 8 h
same,peak plasma concentrations of paclitaxel,"[3]; schedules 1 and 3 (except patient 8), paclitaxel 80 mg m-2",860000 to 1.32e+06 µM
CCC1(c2ccccc2)C(=O)NC(=O)NC1=O [phenobarbitone],effect on the metabolism of paclitaxel,cytochrome P450; [12],increase the metabolism of paclitaxel
O=C1NC(=O)C(c2ccccc2)(c2ccccc2)N1 [phenytoin],effect on the metabolism of paclitaxel,cytochrome P450; [12],increase the metabolism of paclitaxel
